From patent publication US20240342685A1, “ABSORBENT COMPOUNDS FOR CAPTURING CARBON DIOXIDE” (The Regents of the University of California, priority 2021, published 2024)
Where two headings read alike, the source gives them in different places.

What was measured:
[1] = cited from earlier work
[2] = Aspen Plus absorber/stripper process model, CO2 vapor liquid equilibrium; conditions: 11% mole fraction
Source text: For example, the suitability of a PEP variant for non-enzymatic carbon capture can be evaluated by modeling. The Electric Power Research Institute (EPRI; Palo Alto, CA) maintains and operates Aspen Plus process models based on the absorber/stripper configuration shown in FIG. 21 and standard operational parameters (e.g., as described in the Examples). These models are configured to accept generalized solvent (absorbent) properties and calculate the resulting energy penalty. Model inputs can include the solubility, viscosity, and heat capacity of the PEP variant, as well as the CO2 vapor liquid equilibrium (VLE) of the underlying carbon capture reaction equilibrium (absorption/desorption). VLE describes the number of moles CO2 per unit volume solution absorbed via reaction and dissolution as a function of CO2 partial pressure above solution. […] At higher temperature (e.g., 120° C. stripper), reactants are favored and HCO3 desorbs, releasing CO2 back into the gas phase for capture and compression. The difference ACO2 between these temperature extremes determines the absorption capacity of the solvent, or cyclic capacity of the absorber/stripper system.
These models can be used to quantify the energy penalty of a PEP variant for carbon capture chemistry relative to the MEA benchmark. […] The improvement can be evaluated at the temperatures of the absorber (40° C.) and stripper (120° C.).

[3] = Shear viscosity by Green-Kubo relation, MD simulation; conditions: aqueous solution
Description: These simulations were performed under the same conditions and with the same forcefield as the PEP simulations. The shear viscosity of a liquid can be computed through several different atomistic simulation methods. […] In this method, the shear viscosity is obtained from the integral over time of the pressure tensor autocorrelation function: where V is the volume of the system, kB is the Boltzmann constant, T is temperature, Pxy denotes the element xy of the pressure tensor, and the angle bracket refers to the ensemble average. Viscosity plays an important role in pumping costs for moving aqueous PEP solutions between the absorber and stripper.

[4] = in water at 298 K; non-reactive MD literature; cited from earlier work
[5] = pure water; cited from earlier work

Compound | Enthalpy of Solution, Literature value ([1]; 3 m to 4 m) [kcal/mol] | Enthalpy of Solution, Literature value ([1]; 3 m to 5 m) [kcal/mol] | Enthalpy of Solution, Literature value ([1]; 4 m to 5 m) [kcal/mol] | further results
CC(=O)O [Acetic Acid] | -0.0461 | -0.0418 | -0.088 | 
O=CO [Formic Acid] | 0 | 0 | 0 | 
NCCO [MEA, monoethanolamine] |  |  |  | CO2 remaining bound in solution during absorber-stripper cycling ([2]; CCNG): 16%; CO2 remaining bound in solution during absorber-stripper cycling ([2]; SCPC): 29%
C=C(OP(=O)(O)O)C(=O)O [PEP, phosphoenolpyruvate] |  |  |  | viscosity relative to the standard MEA solution ([3]; 45 to 55 wt %): roughly triple; real viscosity ([3]; 45 to 55 wt % (9.8 mol %), estimated): about 3 mPa*s
O=C(O)O [bicarbonate] |  |  |  | diffusion coefficient, published literature [4]: 1.17×10^−9 m^2s^−1
O [water] |  |  |  | viscosity, expected value [5]: around 0.79 mPa·s
